Experimental data taken from ChEMBL document CHEMBL1201862, “PubChem BioAssay data set” (2004).
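Compound exposure: 48 hours, 5 concentrations, 96-well plates. GI50 marks 50% less growth.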 Active and inactive are the calls of the source. No stated cut-off is given here; in the data, active = GI50 up to about 1.1 µM and inactive = higher.

How the values were obtained:
Experiment in all cases: NCI anticancer screen, dose series, 48 h
DLD-1 = system: DLD-1
SF-268 = system: SF-268
A549 = system: A549
M19-MEL = system: M19-MEL
SK-MEL-5 = system: SK-MEL-5
HL-60 = system: HL-60
UACC-257 = system: UACC-257
SK-MEL-28 = system: SK-MEL-28
M14 = system: M14
OVCAR-4 = system: OVCAR-4
SNB-19 = system: SNB-19
SK-MEL-2 = system: SK-MEL-2
UACC-62 = system: UACC-62
ACHN = system: ACHN
NCI-H226 = system: NCI-H226
HT-29 = system: HT-29
Malme-3M = system: Malme-3M
LXFL 529 = system: LXFL 529
SNB-75 = system: SNB-75
DMS-273 = system: DMS-273
MOLT-4 = system: MOLT-4
CCRF-CEM = system: CCRF-CEM
DMS-114 = system: DMS-114
HCT-116 = system: HCT-116
TK-10 = system: TK-10
OVCAR-8 = system: OVCAR-8
786-0 = system: 786-0
K562 = system: K562
NCI-H522 = system: NCI-H522
HOP-18 = system: HOP-18
SNB-78 = system: SNB-78
SF-539 = system: SF-539
SF-295 = system: SF-295
RXF 393 = system: RXF 393
SK-OV-3 = system: SK-OV-3
IGROV-1 = system: IGROV-1
UO-31 = system: UO-31
SN12C = system: SN12C
LOX IMVI = system: LOX IMVI
NCI-H460 = system: NCI-H460
KM12 = system: KM12
HCT-15 = system: HCT-15
NCI-H23 = system: NCI-H23
OVCAR-3 = system: OVCAR-3
U-251 = system: U-251
OVCAR-5 = system: OVCAR-5
HCC 2998 = system: HCC 2998
HOP-92 = system: HOP-92
KM-20L2 = system: KM-20L2
CAKI-1 = system: CAKI-1
EKVX = system: EKVX
HOP-62 = system: HOP-62
SR = system: SR
RPMI-8226 = system: RPMI-8226
A498 = system: A498
SW-620 = system: SW-620
COLO 205 = system: COLO 205

CCOP12(OCC)NC(=O)OC1(C(F)(F)F)c1ccccc1O2 (stereo not given)
GI50 (DLD-1): > 100 µM (inactive)
GI50 (SF-268): > 100 µM (inactive)
GI50 (A549): > 100 µM (inactive)
GI50 (M19-MEL): > 100 µM (inactive)
GI50 (SK-MEL-5): > 100 µM (inactive)
GI50 (HL-60): > 100 µM (inactive)
GI50 (UACC-257): > 100 µM (inactive)
GI50 (SK-MEL-28): > 100 µM (inactive)
GI50 (M14): > 100 µM (inactive)
GI50 (OVCAR-4): > 100 µM (inactive)
GI50 (SNB-19): > 100 µM (inactive)
GI50 (SK-MEL-2): > 100 µM (inactive)
GI50 (UACC-62): > 100 µM (inactive)
GI50 (ACHN): > 100 µM (inactive)
GI50 (NCI-H226): > 100 µM (inactive)
GI50 (HT-29): > 100 µM (inactive)
GI50 (Malme-3M): > 100 µM (inactive)
GI50 (LXFL 529): > 100 µM (inactive)
GI50 (SNB-75): 82.8 µM (inactive)
GI50 (DMS-273): > 100 µM (inactive)
GI50 (MOLT-4): > 100 µM (inactive)
GI50 (CCRF-CEM): > 100 µM (inactive)
GI50 (DMS-114): > 100 µM (inactive)
GI50 (HCT-116): > 100 µM (inactive)
GI50 (TK-10): > 100 µM (inactive)
GI50 (OVCAR-8): > 100 µM (inactive)
GI50 (786-0): > 100 µM (inactive)
GI50 (K562): > 100 µM (inactive)
GI50 (NCI-H522): > 100 µM (inactive)
GI50 (HOP-18): > 100 µM (inactive)
GI50 (SNB-78): > 100 µM (inactive)
GI50 (SF-539): > 100 µM (inactive)
GI50 (SF-295): > 100 µM (inactive)
GI50 (RXF 393): > 100 µM (inactive)
GI50 (SK-OV-3): > 100 µM (inactive)
GI50 (IGROV-1): > 100 µM (inactive)
GI50 (UO-31): > 100 µM (inactive)
GI50 (SN12C): > 100 µM (inactive)
GI50 (LOX IMVI): > 100 µM (inactive)
GI50 (NCI-H460): > 100 µM (inactive)
GI50 (KM12): > 100 µM (inactive)
GI50 (HCT-15): > 100 µM
GI50 (NCI-H23): > 100 µM (inactive)
GI50 (OVCAR-3): > 100 µM (inactive)

O=C(Nc1nccs1)c1cc(C2=CC=CC([N+](=O)[O-])C=C2)nc(S)n1 (stereo not given)
GI50 (SF-268): > 100 µM (inactive)
GI50 (U-251): > 100 µM (inactive)
GI50 (A549): > 100 µM (inactive)
GI50 (M19-MEL): > 100 µM (inactive)
GI50 (SK-MEL-5): > 100 µM (inactive)
GI50 (OVCAR-5): > 100 µM (inactive)
GI50 (HL-60): > 100 µM (inactive)
GI50 (UACC-257): > 100 µM (inactive)
GI50 (SK-MEL-28): > 100 µM (inactive)
GI50 (M14): > 100 µM (inactive)
GI50 (SNB-19): > 100 µM (inactive)
GI50 (SK-MEL-2): > 100 µM (inactive)
GI50 (UACC-62): > 100 µM (inactive)
GI50 (ACHN): > 100 µM (inactive)
GI50 (NCI-H226): > 100 µM (inactive)
GI50 (HT-29): > 100 µM (inactive)
GI50 (Malme-3M): > 100 µM (inactive)
GI50 (HCC 2998): > 100 µM (inactive)
GI50 (LXFL 529): > 100 µM (inactive)
GI50 (SNB-75): > 100 µM (inactive)
GI50 (HOP-92): > 100 µM (inactive)
GI50 (KM-20L2): > 100 µM (inactive)
GI50 (DMS-273): > 100 µM (inactive)
GI50 (MOLT-4): > 100 µM (inactive)
GI50 (CCRF-CEM): > 100 µM (inactive)
GI50 (DMS-114): > 100 µM (inactive)
GI50 (HCT-116): > 100 µM (inactive)
GI50 (CAKI-1): > 100 µM (inactive)
GI50 (TK-10): > 100 µM (inactive)
GI50 (OVCAR-8): > 100 µM (inactive)
GI50 (786-0): > 100 µM (inactive)
GI50 (EKVX): > 100 µM (inactive)
GI50 (K562): > 100 µM (inactive)
GI50 (NCI-H522): > 100 µM (inactive)
GI50 (HOP-18): > 100 µM (inactive)
GI50 (SNB-78): > 100 µM (inactive)
GI50 (SF-539): > 100 µM (inactive)
GI50 (SF-295): > 100 µM (inactive)
GI50 (RXF 393): > 100 µM (inactive)
GI50 (SK-OV-3): > 100 µM (inactive)
GI50 (IGROV-1): > 100 µM (inactive)
GI50 (HOP-62): > 100 µM (inactive)
GI50 (UO-31): > 100 µM (inactive)
GI50 (SN12C): > 100 µM (inactive)
GI50 (LOX IMVI): > 100 µM (inactive)
GI50 (NCI-H460): > 100 µM (inactive)
GI50 (KM12): > 100 µM (inactive)
GI50 (SR): > 100 µM (inactive)
GI50 (RPMI-8226): > 100 µM (inactive)
GI50 (A498): > 100 µM (inactive)
GI50 (SW-620): > 100 µM (inactive)
GI50 (COLO 205): > 100 µM (inactive)
GI50 (HCT-15): > 100 µM
GI50 (NCI-H23): > 100 µM (inactive)
GI50 (OVCAR-3): > 100 µM (inactive)

COc1ccc(C2CCC(Cl)(OC)CC2C=O)cc1 (stereo not given)
GI50 (DLD-1): 91.4 µM (inactive)
GI50 (SF-268): 21.9 µM (inactive)
GI50 (U-251): 43.9 µM (inactive)
GI50 (A549): 61.5 µM (inactive)
GI50 (M19-MEL): 32.1 µM (inactive)
GI50 (SK-MEL-5): 58.7 µM (inactive)
GI50 (OVCAR-5): > 100 µM (inactive)
GI50 (HL-60): 69.5 µM (inactive)
GI50 (UACC-257): > 100 µM (inactive)
GI50 (SK-MEL-28): 21 µM (inactive)
GI50 (M14): 40.1 µM (inactive)
GI50 (OVCAR-4): > 100 µM (inactive)
GI50 (SNB-19): 73.6 µM (inactive)
GI50 (SK-MEL-2): 21.9 µM (inactive)
GI50 (UACC-62): 58.7 µM (inactive)
GI50 (ACHN): 95.9 µM (inactive)
GI50 (NCI-H226): > 100 µM (inactive)
GI50 (HT-29): 50.7 µM (inactive)
GI50 (Malme-3M): 44.9 µM (inactive)
GI50 (HCC 2998): > 100 µM (inactive)
GI50 (LXFL 529): > 100 µM (inactive)
GI50 (SNB-75): 31.4 µM (inactive)
GI50 (HOP-92): 29.9 µM (inactive)
GI50 (KM-20L2): 67.1 µM (inactive)
GI50 (DMS-273): 53.7 µM (inactive)
GI50 (MOLT-4): 47.5 µM (inactive)
GI50 (CCRF-CEM): 29.7 µM (inactive)
GI50 (DMS-114): 27.5 µM (inactive)
GI50 (HCT-116): 52 µM (inactive)
GI50 (CAKI-1): 39.8 µM (inactive)
GI50 (TK-10): > 100 µM (inactive)
GI50 (OVCAR-8): 85.1 µM (inactive)
GI50 (786-0): 45 µM (inactive)
GI50 (EKVX): > 100 µM (inactive)
GI50 (K562): > 100 µM (inactive)
GI50 (NCI-H522): 64.7 µM (inactive)
GI50 (HOP-18): 68.9 µM (inactive)
GI50 (SF-539): 56.4 µM (inactive)
GI50 (SF-295): 46.1 µM (inactive)
GI50 (RXF 393): 0.128 µM (active)
GI50 (SK-OV-3): > 100 µM (inactive)
GI50 (IGROV-1): > 100 µM (inactive)
GI50 (HOP-62): 94 µM (inactive)
GI50 (UO-31): 80.4 µM (inactive)
GI50 (SN12C): > 100 µM (inactive)
GI50 (LOX IMVI): 13.3 µM (inactive)
GI50 (NCI-H460): > 100 µM (inactive)
GI50 (KM12): > 100 µM (inactive)
GI50 (SR): 41.1 µM (inactive)
GI50 (RPMI-8226): 45.7 µM (inactive)
GI50 (A498): > 100 µM (inactive)
GI50 (SW-620): 54.3 µM (inactive)
GI50 (COLO 205): > 100 µM (inactive)
GI50 (HCT-15): 49.4 µM
GI50 (NCI-H23): 34.6 µM (inactive)
GI50 (OVCAR-3): 94.2 µM (inactive)
